# According to patent publication US20110098257A1, “DERIVATIVES OF 4- OR 5-AMINOSALICYLIC ACID” (ANTIBE THERAPEUTICS INC., priority 2005, published 2011):
# Assays:
# [1] = tested on: visceral pain in response to colorectal distension; test: Rat model of visceral pain perception (colorectal distension, AWR score); format: in vivo, Rats (male, Wistar)
# Method: A rat model of visceral pain perception, a pre-clinical model of irritable bowel syndrome, was used in the following example. Rats (male, Wistar, 200-250 g, obtained from Charles River, Monza, Italy), were housed in plastic cages and maintained under controlled conditions with 12-hours light/dark cycle with lights on at 7.00 AM. Tap water and standard laboratory chow were freely available. Before experiments, rats were individually trained by spending 2-3 hours per day in a plexiglass cage for 2-3 days. It allowed them to adjust to a movement-restriction environment. Food was withheld for 12 hours before colorectal distension (CRD) recording were performed. Experiments were performed in awake rats and were conducted in a blind manner in that the observer was not aware of the identity of drug administered to each animal.
# In the testing day, rats were sedated with ether inhalation and a 2 cm long latex balloon was inserted intrarectally 2 cm from the anal verge and fixed at the base of the tail. The balloon was connected via a double-barreled cannula to a pressure transducer to continuously monitoring the rectal pressure by a computer (PowerLab PC, A.D. Instruments, Milford, Mass., USA) and to a syringe for inflation/deflation of the balloon. The rats were then housed in a small cage (20×8×8 cm) on an elevated Plexiglas™ platform and allowed to wake up and adapt for 1 hour. After recovery from sedation, animals underwent the CRD procedure and behavioral responses were tested. The night before the experiments, the balloons were inflated and left overnight so the latex stretched and the balloons became compliant.
# CRD of 20 seconds, performed every 5 minutes, was applied in increment of 0.4 ml starting from 0.4 ml up to 1.6 ml water. To achieve an accurate measurement of the colonic parameters and perception, the distensions were repeated twice for each intensity and data for each animal were averaged for analysis. Each animal underwent a double set of CRD. Twenty minutes after the first sequence of CRD (0.4 mL-1.6 ml water), drugs were administered intraperitoneally (i.p.) and a second set of CRD was performed. Behavioral responses during the first and the second set of CRD were assessed and compared.
# Behavioral response to CRD was assessed by measuring the abdominal withdrawal reflex (AWR) using a semiquantitative score (1).
# The effects of mesalamine and Compound XXXV on colonic compliance and sensitivity were determined using a total of 8 fasting rats. To investigate whether the administration of mesalamine and Compound XXXV could revert pain induced by CRD, after the first sequence of CRD, […], after which a second set of CRD was repeated.
# To determine the effect of mesalamine or Compound XXXV on colonic smooth muscle, the compliance of the colo-rectum during CRD was obtained from intracolo-rectal volume and pressure and expressed as mL/mmHg.
# All data are presented as the mean±SEM, with sample sizes of 4 rats/group; statistical comparison of paired data was performed by the Wilcoxon signed rank test. An associated probability (p value) of less that 5% was considered significant.
# A rat model of visceral pain perception as described above was used to compare pain perception scores for both Compound XXXV and Compound XXVII with or without glibenclamide, an inhibitor of ATP-sensitive K^+ (KATP) channels.
# [2] = tested on: leukocyte adherence in mesenteric post-capillary venules; test: Leukocyte adherence to the vascular endothelium in vivo (intravital microscopy, aspirin-induced); parameters: species or system Rats
# Method: Leukocyte adherence was studied using intravital microscopy, as described in detail previously (Wallace et al., (1993) Am. J. Physiol. 265: 993-998, incorporated hereto by reference). Rats were anesthetized with pentobarbital sodium (60 mg/kg i.p.) and cautery incisions were made along the abdominal region. A tracheotomy was performed to facilitate breathing. The rats were placed in a supine position, and a segment of the mesentery was exteriorized through the abdominal incision. The mesentery was carefully placed over an optically clear viewing pedestal that allowed for trans-illumination of a 2-cm^2 segment of tissue. All exposed tissue was covered with saline-soaked gauze to minimize dehydration. The temperature of the pedestal was kept at 37° C. and the mesentery was superfused with warmed bicarbonate-buffered saline (pH 7.4). An intravital microscope (Nikon L25/0.35) and a ×10 eyepiece were used to observe the mesenteric microcirculation. Post-capillary venules with diameters ranging from 20 to 40 μm were selected for the study. A video camera mounted on the microscope (Panasonic™ digital 5000) projected the image onto a monitor, and the images were recorded for playback analysis using a videocassette recorder. Images of the mesenteric microcirculation were recorded 5 minutes prior to aspirin administration (baseline), at the time of aspirin administration (time 0-5) and every 15 minutes for 60 minutes. Leukocyte adherence was blindly quantified from videotaped images of the vessels made over 5-min periods as the number of leukocytes that remained stationary along the vessel wall for 30 s or more (expressed per 100 μm venule length). Groups of rats (at least 5 in each) were pretreated with Compound XXXV (130 mg/kg), Compound XXVII (100 mg/kg), mesalamine (50 mg/kg), or vehicle 60 min prior to aspirin (or vehicle) administration. These drugs were given intragastrically. In some experiments, rats were treated with glibenclamide (10 mg/kg i.p.) or vehicle 30 min prior to administration of these compounds.
# [3] = tested on: IL-10 mRNA; test: Colonic mRNA expression by RT-PCR in TNBS-induced colitis; format: in vivo, mice; conditions: dose equimolar to mesalamine 50 mg/kg; normalized to GAPDH, ratio to healthy controls
# Method: (§1) The same model was used as described above. In this example, the effects of mesalamine (50 mg/kg) were compared to those of equimolar doses of Compound XXXV. In addition to measuring the severity of colitis by measuring disease activity score and MPO activity, tissues were processed for measurement of a number of genes for inflammatory cytokines and other mediators.
# (§2) In particular, mRNA expression in mice of tumour necrosis factor-alpha (TNF-α), interferon gamma (IFN-[…]γ), colonic interleukin (IL)-1, IL-2, IL-10, IL-12 p40, RANTES, cyclooxygenase (COX)-1, COX-2, constitutive endothelial nitric oxide synthase (eNOS), and inducible NOS (iNOS) was measured as described in Wallace et al. (1999) Gastroenterology 117: 557-566, incorporated herein by reference.
# (§3) Briefly, reverse transcription-polymerase chain reaction (RT-PCR) was used to detect and quantify mRNA of the particular cytokine/chemokine/enzyme. Glyceraldehyde-3-phosphate dehydrogenase (GAPDH) was used as the “housekeeping gene” for mRNA expression (i.e., as an internal control). For each sample, the ratio of the amplification of the target gene to the amplification of GAPDH (expression of each is measured by performing densitometry on gels) was obtained. Comparisons were then made between the relative amplification (expression) of the target gene in tissues for the treatment groups in comparison to the expression in tissues from healthy controls. Thus, the data shown in FIGS. 7-14 represent the relative expression of the target gene (normalized to GAPDH expression) as a ratio to the expression in healthy controls.
# [4] = tested on: eNOS mRNA; test: as above; format: in vivo, mice; conditions: dose equimolar to mesalamine 50 mg/kg; FIG. 14
# Method: as §1, §2, §3
smiles,measurement,setting,value
"Nc1ccc(O)c(C(=O)Oc2ccc(-c3cc(=S)ss3)cc2)c1 [Compound XXXV, 5-Amino-2-hydroxy-benzoic acid 4-(5-thioxo-5H-[1,2]dithiol-3-yl)-phenyl ester]",intrarectal pressure,"[1]; 100 mg/kg i.p., FIG. 16(b)",successfully reduced intrarectal pressure
same,perception score (visceral pain in response to colorectal distension),"[1]; 100 mg/kg i.p., second set of CRD vs first, FIG. 15",more effective than mesalamine (and vehicle) in reducing visceral pain
same,pain perception score after glibenclamide pretreatment,"[1]; 0.8 mL colorectal distention, 100 mg/kg, glibenclamide 10 mg/kg i.p. 30 min before, FIG. 17",reversed by pretreatment with glibenclamide
same,pain perception score,"[1]; 0.8 mL colorectal distention, 100 mg/kg, vs vehicle-treated group, FIG. 17",significantly reduced the pain perception
same,pain perception,"[1]; equimolar doses: mesalamine 50, Compound XXXV 130, ADT-OH 80, Compound XXVII 100, 4-HTB 50 mg/kg, vs vehicle-treated group",significantly reduced pain perception
same,aspirin-induced leukocyte adherence with glibenclamide pretreatment,"[2]; glibenclamide 10 mg/kg i.p. 30 min prior to the compound, compound plus aspirin, FIG. 19",glibenclamide reversed the inhibitory effect
same,"aspirin-induced leukocyte adherence, final time period","[2]; minutes 60-65, Compound XXXV 130 mg/kg, Compound XXVII 100 mg/kg, FIG. 20",suppress aspirin-induced leukocyte adherence
same,"aspirin-induced leukocyte adherence, final time period, with glibenclamide pretreatment","[2]; minutes 60-65, glibenclamide 10 mg/kg i.p., FIG. 20",glibenclamide pretreatment to reverse this inhibitor effect
same,aspirin-induced increase in leukocyte adherence,"[2]; pretreatment: Compound XXXV 130 mg/kg or mesalamine 50 mg/kg intragastrically 60 min prior to aspirin, glibenclamide 10 mg/kg i.p., FIG. 19",prevented the aspirin-induced increase in leukocyte adherence
same,expression of IL-10 mRNA,[3],did not suppress expression of IL-10 mRNA
same,eNOS mRNA expression,[4],suppressed
